Results published in patent publication US12570675B2, “Boronic acid compounds” (LG CHEM, LTD., priority 2020, dated 2026).

Experiments:
[1] = biological target: Proteasome chymotrypsin-like activity (S26 protein from RPMI8226 cells) (Homo sapiens, UniProt P28074); type: biochemical; conditions: S26 protein from RPMI8226 cell extract 2 ug/well, substrate 20 uM, 37° C., 90 minutes; read-out: Proteasome chymotrypsin-like activity inhibition IC50
In short: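 Inhibition is measured in crude proteasome (S26) from RPMI8226 cells at 2 ug/well, using 20 uM substrate specific to each activity: Suc-LLVY-AMC for chymotrypsin-like, Z-LLE-AMC for caspase-like. Compounds span a dilution series from 10 uM.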

[2] = biological target: Proteasome caspase-like activity (S26 protein from RPMI8226 cells) (Homo sapiens (Human), UniProt P28072); assay: Proteasome caspase-like activity inhibition (Z-Leu-Leu-Glu-AMC fluorogenic substrate, RPMI8226 cell extract); type: biochemical; conditions: S26 protein from RPMI8226 cell extract 2 ug/well, substrate 20 uM, 37° C., 90 minutes
Proteasome caspase-like activity (S26 protein from RPMI8226 cells), sequence (P28072 whole entry): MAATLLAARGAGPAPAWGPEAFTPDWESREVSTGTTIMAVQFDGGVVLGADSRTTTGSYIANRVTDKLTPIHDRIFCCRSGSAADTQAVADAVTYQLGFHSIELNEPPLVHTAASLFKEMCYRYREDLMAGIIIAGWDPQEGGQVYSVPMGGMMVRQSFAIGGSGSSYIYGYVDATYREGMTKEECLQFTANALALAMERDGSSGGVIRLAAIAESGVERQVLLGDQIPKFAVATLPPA
Description: The abilities to inhibit the proteasome activity of the compounds described in the Examples of the present invention and boronic acid drugs were evaluated as follows.
RPMI8226 cells, which is a multiple myeloma cell line, were cultured and then separated by a centrifuge, and washed twice with phosphate buffered saline (PBS). 20 mM of a tris-HCl (pH 8.0) buffer solution was added to the washed cells, and the cells were disrupted by a homogenizer and centrifuged to obtain S26 protein from the supernatant. Suc-Leu-Leu-Val-Tyr-AMC, for a fluorogenic substrate for the chymotrypsin-like activity of the proteasome, and Z-Leu-Leu-Glu-AMC, for a fluorogenic substrate for the caspase-like activity, were purchased from Calbiochem, EMD Millipore and used. Into each well of a 96-well plate (opaque, black round bottom), 20 ul of the S26 protein (final RPMI8226 cell extract concentration: 2 ug/well), 10 ul of S26 proteasome inhibitor serially diluted from 10 uM (final DMSO concentration: 0.5%), and 20 ul of the fluorogenic substrate for the proteasome chymotrypsin-like or caspase-like activity (final concentration: 20 uM) were added and mixed and allowed to react in a 37° C. incubator for 90 minutes. The fluorescence of the fluorogenic substrate was measured by FlexStation II Fluorometer (Molecular Devices). The fluorescence inhibited by the compound diluted at each concentration was measured as the relative percentage value for the amount obtained from the treatment only with the S26 protein and the fluorogenic substrate. IC50 (inhibitory concentration 50) was expressed in terms of a concentration that inhibits 50% of the maximum fluorescence induced by the fluorogenic substrate.

Proteasome chymotrypsin-like activity (S26 protein from RPMI8226 cells), sequence (P28074 60-263 limits assumed): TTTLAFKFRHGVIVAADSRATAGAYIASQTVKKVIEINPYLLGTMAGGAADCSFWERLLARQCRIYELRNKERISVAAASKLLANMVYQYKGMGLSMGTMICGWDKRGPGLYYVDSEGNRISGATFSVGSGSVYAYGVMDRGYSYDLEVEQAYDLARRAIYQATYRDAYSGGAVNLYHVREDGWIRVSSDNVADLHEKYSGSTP

SMILES | IC50 [1] [nM] | IC50 [2] [nM]
Cc1cnc(COCC2=NOC(Cc3ccccc3)(C(=O)N[C@@H](CC(C)C)B(O)O)C2)cn1 (stereo partly drawn) [Example 48, ((1R)-1-(5-benzyl-3-(((5-methylpyrazin-2-yl)methoxy)methyl)-4,5-dihydroisoxazol-5-carboxamido)-3-methylbutyl)boronic acid] | < 25 | > 250
CC(C)C[C@H](NC(=O)C1(Cc2ccccc2)CC(COCc2nccc3ccccc23)=NO1)B(O)O (stereo partly drawn) [Example 49, ((1R)-1-(5-benzyl-3-((isoquinolin-1-ylmethoxy)methyl)-4,5-dihydroisoxazol-5-carboxamido)-3-methylbutyl)boronic acid] | < 10 | > 1000
Cc1nc(C)c(COCC2=NOC(Cc3ccccc3)(C(=O)N[C@@H](CC(C)C)B(O)O)C2)s1 (stereo partly drawn) [Example 51, ((1R)-1-(5-benzyl-3-(((2,4-dimethylthiazol-5-yl)methoxy)methyl)-4,5-dihydroisoxazol-5-carboxamido)-3-methylbutyl)boronic acid] | < 10 | > 500
CC(C)C[C@H](NC(=O)C1CC(CNC(=O)c2ccccc2)=NO1)B(O)O (stereo partly drawn) [Example 59, ((1R)-1-(3-(benzamidomethyl)-4,5-dihydroisoxazol-5-carboxamido)-3-methylbutyl)boronic acid] | < 100 | > 500
CC(C)C[C@H](NC(=O)C1CC(CNC(=O)c2cccc3c2CCCC3)=NO1)B(O)O (stereo partly drawn) [Example 63, ((1R)-3-methyl-1-(3-((5,6,7,8-tetrahydronaphthalen-1-carboxamido)methyl)-4,5-dihydroisoxazol-5-carboxamido)butyl)boronic acid] | < 10 | > 500
CC(C)C[C@H](NC(=O)C1CC(CNC(=O)c2cccc(Oc3ccccc3)c2)=NO1)B(O)O (stereo partly drawn) [Example 71, ((1R)-3-methyl-1-(3-((3-phenoxybenzamido)methyl)-4,5-dihydroisoxazol-5-carboxamido)butyl)boronic acid] | < 25 | > 250
CC(C)C[C@H](NC(=O)C1CC([C@H](CC(C)C)NC(=O)c2cc(Cl)ccc2Cl)=NO1)B(O)O (stereo partly drawn) [Example 74, ((1R)-1-(3-((S)-1-(2,5-dichlorobenzamido)-3-methylbutyl)-4,5-dihydroisoxazol-5-carboxamido)-3-methylbutyl)boronic acid] | < 25 | > 500
CC(C)C[C@H](NC(=O)C1(Cc2ccccc2)CC(CNC(=O)c2nccc3ccccc23)=NO1)B(O)O (stereo partly drawn) [Example 84, ((1R)-1-(5-benzyl-3-((isoquinolin-1-carboxamido)methyl)-4,5-dihydroisoxazol-5-carboxamido)-3-methylbutyl)boronic acid] | < 10 | > 1000
CC(C)C[C@H](NC(=O)C1(C)CC(CNC(=O)c2cc(Cl)ccc2Cl)=NO1)B(O)O (stereo partly drawn) [Example 86, ((1R)-1-(3-((2,5-dichlorobenzamido)methyl)-5-methyl-4,5-dihydroisoxazol-5-carboxamido)-3-methylbutyl)boronic acid] | < 50 | > 2500
CCC1(C(=O)N[C@@H](CC(C)C)B(O)O)CC(CNC(=O)c2cc(Cl)ccc2Cl)=NO1 (stereo partly drawn) [Example 87, ((1R)-1-(3-((2,5-dichlorobenzamido)methyl)-5-ethyl-4,5-dihydroisoxazol-5-carboxamido)-3-methylbutyl)boronic acid] | < 50 | > 2500
CC(C)C[C@H](NC(=O)C1(Cc2ccccc2)CC(CNC(=O)c2cccc3ccccc23)=NO1)B(O)O (stereo partly drawn) [Example 92, ((1R)-1-(3-((1-naphthamido)methyl)-5-benzyl-4,5-dihydroisoxazol-5-carboxamido)-3-methylbutyl)boronic acid] | < 10 | > 500
CC(C)C[C@H](NC(=O)C1(Cc2ccccc2)CC(CNC(=O)c2cc(C(F)(F)F)ccc2Cl)=NO1)B(O)O (stereo partly drawn) [Example 112, ((1R)-1-(5-benzyl-3-((2-chloro-5-(trifluoromethyl)benzamido)methyl)-4,5-dihydroisoxazol-5-carboxamido)-3-methylbutyl)boronic acid] | < 10 | > 2500
CC(C)C[C@H](NC(=O)C1(Cc2ccccc2)CC(CNC(=O)c2cccc3cccnc23)=NO1)B(O)O (stereo partly drawn) [Example 113, ((1R)-1-(5-benzyl-3-((quinolin-8-carboxamido)methyl)-4,5-dihydroisoxazol-5-carboxamido)-3-methylbutyl)boronic acid] | < 10 | > 500
CC(C)C[C@H](NC(=O)C1(Cc2ccccc2)CC(CNC(=O)c2cccc(C#N)n2)=NO1)B(O)O (stereo partly shown) [Example 323] | < 10 | –

Results, then the compound that gave them:

IC50 [1] [nM] | IC50 [2] [nM] | SMILES
< 10 | > 250 | Cc1nc(COCC2=NOC(Cc3ccccc3)(C(=O)N[C@@H](CC(C)C)B(O)O)C2)cs1 (stereo partly drawn) [Example 46, ((1R)-1-(5-benzyl-3-(((2-methylthiazol-4-yl)methoxy)methyl)-4,5-dihydroisoxazol-5-carboxamido)-3-methylbutyl)boronic acid]
< 10 | > 250 | Cc1cccc(COCC2=NOC(Cc3ccccc3)(C(=O)N[C@@H](CC(C)C)B(O)O)C2)n1 (stereo partly drawn) [Example 47, ((1R)-1-(5-benzyl-3-(((6-methylpyridin-2-yl)methoxy)methyl)-4,5-dihydroisoxazol-5-carboxamido)-3-methylbutyl)boronic acid]
< 10 | > 500 | CC(C)C[C@H](NC(=O)C1CC(CNC(=O)c2nccc3ccccc23)=NO1)B(O)O (stereo partly drawn) [Example 61, ((1R)-1-(3-((isoquinolin-1-carboxamido)methyl)-4,5-dihydroisoxazol-5-carboxamido)-3-methylbutyl)boronic acid]
< 10 | > 250 | CC(C)C[C@H](NC(=O)C1CC(CNC(=O)c2cccc3ccccc23)=NO1)B(O)O (stereo partly drawn) [Example 64, ((1R)-1-(3-((1-naphthamido)methyl)-4,5-dihydroisoxazol-5-carboxamido)-3-methylbutyl)boronic acid]
< 10 | > 500 | CC(C)C[C@H](NC(=O)C1CC(CNC(=O)c2cc(Cl)ccc2Cl)=NO1)B(O)O (stereo partly drawn) [Example 68, ((1R)-1-(3-((2,5-dichlorobenzamido)methyl)-4,5-dihydroisoxazol-5-carboxamido)-3-methylbutyl)boronic acid]
< 10 | > 100 | CC(C)C[C@H](NC(=O)C1CC([C@@H](NC(=O)c2cc(Cl)ccc2Cl)C(C)C)=NO1)B(O)O (stereo partly drawn) [Example 72, ((1R)-1-(3-((S)-1-(2,5-dichlorobenzamido)-2-methylpropyl)-4,5-dihydroisoxazol-5-carboxamido)-3-methylbutyl)boronic acid]
< 25 | > 100 | CC(C)C[C@H](NC(=O)C1CC([C@H](CC(C)C)NC(=O)c2nccc3ccccc23)=NO1)B(O)O (stereo partly drawn) [Example 73, ((1R)-1-(3-((S)-1-(isoquinolin-1-carboxamido)-3-methylbutyl)-4,5-dihydroisoxazol-5-carboxamido)-3-methylbutyl)boronic acid]
< 50 | > 500 | Cc1ccc(F)cc1C(=O)NCC1=NOC(C(=O)N[C@@H](CC(C)C)B(O)O)C1 (stereo partly drawn) [Example 82, ((1R)-1-(3-((5-fluoro-2-methylbenzamido)methyl)-4,5-dihydroisoxazol-5-carboxamido)-3-methylbutyl)boronic acid]
< 10 | > 1000 | CC(C)C[C@H](NC(=O)C1(Cc2ccccc2)CC(CNC(=O)c2cc(Cl)ccc2Cl)=NO1)B(O)O (stereo partly drawn) [Example 85, ((1R)-1-(5-benzyl-3-((2,5-dichlorobenzamido)methyl)-4,5-dihydroisoxazol-5-carboxamido)-3-methylbutyl)boronic acid]
< 25 | > 2500 | CCCC1(C(=O)N[C@@H](CC(C)C)B(O)O)CC(CNC(=O)c2cc(Cl)ccc2Cl)=NO1 (stereo partly drawn) [Example 88, ((1R)-1-(3-((2,5-dichlorobenzamido)methyl)-5-propyl-4,5-dihydroisoxazol-5-carboxamido)-3-methylbutyl)boronic acid]
< 10 | > 1000 | COc1cccc(CC2(C(=O)N[C@@H](CC(C)C)B(O)O)CC(CNC(=O)c3nccc4ccccc34)=NO2)c1 (stereo partly drawn) [Example 100, ((1R)-1-(3-((isoquinolin-1-carboxamido)methyl)-5-(3-methoxybenzyl)-4,5-dihydroisoxazol-5-carboxamido)-3-methylbutyl)boronic acid]
< 10 | > 500 | Cc1cc(C(=O)NCC2=NOC(Cc3ccccc3)(C(=O)N[C@@H](CC(C)C)B(O)O)C2)no1 (stereo partly drawn) [Example 107, ((1R)-1-(5-benzyl-3-((5-methylisoxazol-3-carboxamido)methyl)-4,5-dihydroisoxazol-5-carboxamido)-3-methylbutyl)boronic acid]
– | 7 | CC(C)C[C@H](NC(=O)CNC(=O)c1cc(Cl)ccc1Cl)B(O)O [ixazomib]
